These results are taken from patent publication US20230295574A1, “GINGIVAL TISSUES AND METHODS OF PREPARATION THEREOF” (National University of Singapore, priority 2020, published 2023).

Data set [1] concerns lamina propria equivalents. Briefly: Mucosal irritation of mouthwashes on lamina propria equivalents (oral ulcer model). On the procedure: Oral ulcers are one of the most common disturbances in the oral cavity. Since, the oral ulcers is devoid of the overlying epithelium, the barrier function provided by the epithelium is lost. […] To evaluate the use of 3D cultured lamina propria equivalents as a model of oral ulcers, we investigated the impact of 2 commercially available mouthwashes for mucosal irritation. To mimic the actual use case scenario, gingival tissue equivalents (surface area 0.78 cm^2) were exposed to 130 μl alcohol-free (Listerine® Gum care Zero) or alcohol-based (Listerine® Cool Mint) mouthwashes for 30 secs, washed, and cultured. After 10 hours, the tissues were re-exposed to the respective mouthwash, washed and cultured for 24 hours. Phosphate buffered saline (PBS) and 1% sodium lauryl sulphate was used as negative and positive controls respectively. Based on the OECD TG439 guidelines, 50% cellular viability was set as threshold for classification of mucosal irritation.

Data set [2] concerns Gingiva-FT gingival tissue equivalents. Briefly: Mucosal irritation and barrier integrity of mouthwashes on intact Gingiva-FT. As to the method: To evaluate the use of 3D cultured gingival tissue equivalents of the present invention for mucosal irritation, we investigated the impact of 2 commercially available mouthwashes. To mimic the actual use case scenario, gingival tissue equivalents (surface area 0.78 cm^2) were exposed to 130 μl alcohol-free (Listerine® Gum care Zero) or alcohol-based (Listerine® Cool Mint) mouthwashes for 30 secs, washed, and cultured. After 10 hours, the tissues were re-exposed to the respective mouthwash, washed and cultured for 24 hours. Phosphate buffered saline (PBS) and 1% sodium lauryl sulphate was used as negative and positive controls respectively. Based on the OECD TG439 guidelines, 50% cellular viability was set as threshold for classification of mucosal irritants.

The test system is the same in data set [3]. Briefly: Mucosal corrosion on Gingiva-FT (OECD TG431). The class given is cell-based, human. The following applies: for tissue disruption: Gingiva-FT. As to the method:
Some excipients used to incorporate the actives and formulate oral/dental care products and pharmaceuticals, have the potential to cause mucosal corrosion similar to caustic substances like acids and bases. […] Based on the OECD TG431 guidelines, 50% and 15% cellular viability was set as thresholds for 3 min and 60 min exposures respectively.

The mark [4] stands for this setting: lamina propria equivalents, exposure 30 secs twice, 24 hours culture.
The mark [5] stands for this setting: exposure 30 secs twice, 24 hours culture.

In the case of `CCCCCCCCCCCCOS(=O)(=O)[O-].[Na+]` [1% sodium lauryl sulphate, sodium lauryl sulphate], the cellular viability in data set [1] (lamina propria equivalents (ulcer model), exposure 30 secs, re-exposed after 10 hours, cultured 24 hours, 50% threshold (OECD TG439)) was less than 50%. In data set [1] (setting [4]), the “TUNEL staining (apoptosis/cell death)” value is listed as “TUNEL positivity”, the “cytotoxicity (LDH assay)” value was “markedly increased cytotoxicity” and the tissue disruption result was “significant tissue disruption”. Moreover, in data set [2] (setting [5]), the “TUNEL staining (apoptosis/cell death)” value is on record as “TUNEL positivity”, the “cytotoxicity (LDH assay)” value is given as “markedly increased cytotoxicity” and the “tissue / epithelial disruption” value is listed as “significant tissue disruption”. The cellular viability in data set [2] (exposure 30 secs, re-exposed after 10 hours, cultured 24 hours, 50% threshold (OECD TG439)) is recorded as less than 50%.

Regarding `O=P(O)(O)O` [37% phosphoric acid, phosphoric acid], the tissue disruption entry was “tissue disruption” in data set [3] (3 min exposure) and “almost complete lysis of the tissues” in data set [3] (60 min exposure). The mucosal corrosion classification entry in data set [3] (OECD TG431) was “corrosive (category 1A)”.
